In patent publication US8173771B2, “Humanin receptor or humanin-like polypeptide receptor” (Keio Univeristy, priority 2005, dated 2012):
Peptide text beside a SMILES is read from it.

Columns and labels:
[1] = target: T1, human WSX-1, human CNTF receptor and human gp130 overexpressed in F11 cells (Homo sapiens, UniProt Q6UWB1); assay: Immunofluorescence-based HN binding assay (1) after ectopic overexpression of receptor genes in F11 cells; conditions: large amount (10 μM) of non-labeled peptide
T1 construct: His; V5 (C); expressed in transfected cells; host or cells: F11 cells
T1 sequence (Q6UWB1 33-636): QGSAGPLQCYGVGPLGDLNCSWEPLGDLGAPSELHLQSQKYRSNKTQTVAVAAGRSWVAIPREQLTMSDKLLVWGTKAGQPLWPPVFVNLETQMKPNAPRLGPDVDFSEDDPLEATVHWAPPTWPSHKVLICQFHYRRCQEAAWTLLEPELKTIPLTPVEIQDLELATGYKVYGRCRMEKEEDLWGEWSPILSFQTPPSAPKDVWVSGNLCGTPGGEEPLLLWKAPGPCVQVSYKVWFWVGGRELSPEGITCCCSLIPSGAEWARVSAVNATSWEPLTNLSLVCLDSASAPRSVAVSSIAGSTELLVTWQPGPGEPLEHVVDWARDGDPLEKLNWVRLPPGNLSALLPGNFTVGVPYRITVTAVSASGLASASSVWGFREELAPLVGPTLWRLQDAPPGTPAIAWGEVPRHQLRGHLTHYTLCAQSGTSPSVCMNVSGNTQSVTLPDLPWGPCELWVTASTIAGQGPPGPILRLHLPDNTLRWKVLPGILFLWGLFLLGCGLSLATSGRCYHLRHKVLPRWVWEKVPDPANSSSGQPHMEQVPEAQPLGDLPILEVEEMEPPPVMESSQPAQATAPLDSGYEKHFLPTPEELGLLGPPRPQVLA
T1 sequence (P40189 23-918 partner): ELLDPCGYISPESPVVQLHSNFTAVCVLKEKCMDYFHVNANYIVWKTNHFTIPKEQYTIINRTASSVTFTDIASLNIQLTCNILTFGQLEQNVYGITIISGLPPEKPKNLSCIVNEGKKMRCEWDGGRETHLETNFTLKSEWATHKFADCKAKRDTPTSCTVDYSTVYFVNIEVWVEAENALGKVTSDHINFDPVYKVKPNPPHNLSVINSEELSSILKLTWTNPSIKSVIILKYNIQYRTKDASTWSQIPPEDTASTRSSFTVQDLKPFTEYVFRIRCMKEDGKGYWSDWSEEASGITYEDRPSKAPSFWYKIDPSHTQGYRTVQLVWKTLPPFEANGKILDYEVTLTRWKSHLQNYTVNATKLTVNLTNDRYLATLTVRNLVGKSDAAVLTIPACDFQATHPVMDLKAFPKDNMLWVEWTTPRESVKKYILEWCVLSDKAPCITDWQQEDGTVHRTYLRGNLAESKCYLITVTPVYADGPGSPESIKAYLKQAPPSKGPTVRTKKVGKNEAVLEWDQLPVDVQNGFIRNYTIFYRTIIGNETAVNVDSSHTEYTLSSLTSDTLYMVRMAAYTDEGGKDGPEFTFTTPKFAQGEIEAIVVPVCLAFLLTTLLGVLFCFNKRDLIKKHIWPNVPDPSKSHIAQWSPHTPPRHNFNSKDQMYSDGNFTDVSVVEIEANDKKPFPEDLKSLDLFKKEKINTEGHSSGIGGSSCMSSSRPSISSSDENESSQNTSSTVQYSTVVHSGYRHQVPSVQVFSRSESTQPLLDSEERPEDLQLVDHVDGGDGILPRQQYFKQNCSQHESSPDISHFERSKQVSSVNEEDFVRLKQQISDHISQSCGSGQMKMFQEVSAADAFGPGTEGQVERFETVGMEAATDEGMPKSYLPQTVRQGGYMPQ
Procedure: A) F11 cells were transfected with 0.5 μg of the pEF/BOS vector, pEF-mycHis CREME9, pEF-mycHishuman WSX-1, or pEF-V5-human CNTF-R in association with 0.5 μg of pCAG-human gp130, or transfected with 0.5 μg of pEF-mycHis human WSX-1 and pEF-V5-human CNTF-R and pCAG-human gp130. To keep the total amounts of transfected vectors to be 1.5 μg, an appropriate amount of the pEFBOS vector was added. The graphs show the results of a binding amount of the biotin-labeled HN to each transfected cell by the detection of immunofluorescence reaction. The protein expression by immunoblot analysis is shown below in photos.
B) F11 cells were transfected with 0.5 μg of pEF-myc His human CREME9 or pEF-mycHis human WSX-1 in association with 0.5 μg of pCAG-human gp130. For competition, 10 μM of non-labeled (cold) HNG or HNA was added for some experiments. Fluorescence signals were detected with a laser-scanning, confocal microscope LSM (Carl Zeiss, Germany) (right panels).
F11 cells (7×10^4/well in 6-well plates) were replated into 96-well plates (7×10^3 cells/well) at 24 hrs after transfection with indicated amounts of the plasmids encoding mycHis-WSX or V5-CNTF-R, and with PCAG-human gp130 if required. […] Immunofluorescence intensity was measured (excitation=485 nm, emission=535 nm) with a spectrofluorometer (Wallac1420 ARVOsx Multi Label Counter). […]

[2] = system: neuronal cell death by AD-related insults; conditions: cited from earlier work

Compound | effect of unlabeled peptide on binding of HN to cells expressing WSX-1 and gp130 [1] | potency relative to HN [2] | HN activity of the mutant ([2]; negative control)
CC[C@H](C)[C@H](NC(=O)[C@H](CCC(=O)O)NC(=O)CNC(=O)[C@@H](NC(=O)[C@H](CC(C)C)NC(=O)[C@H](CC(C)C)NC(=O)[C@H](CC(C)C)NC(=O)[C@H](CC(C)C)NC(=O)[C@H](CS)NC(=O)[C@H](CO)NC(=O)[C@H](Cc1ccccc1)NC(=O)CNC(=O)[C@H](CCCNC(=N)N)NC(=O)[C@@H]1CCCN1C(=O)[C@H](C)NC(=O)[C@@H](N)CCSC)[C@@H](C)O)C(=O)N[C@@H](CC(=O)O)C(=O)N[C@@H](CC(C)C)C(=O)N1CCC[C@H]1C(=O)N[C@H](C(=O)N[C@@H](CCCCN)C(=O)N[C@@H](CCCNC(=N)N)C(=O)N[C@@H](CCCNC(=N)N)C(=O)N[C@@H](C)C(=O)O)C(C)C [HNG, S14 G-Humanin] (H-MAPRGFSCLLLLTGEIDLPVKRRA-OH; N-terminus and C-terminus assumed) | nullified | 1000 fold | 
C8A-Humanin (MAPRGFSALLLLTSEIDLPVKRRA) [HNA] | not |  | null activity
